# Data published in patent US8476255B2, “Histone deacetylase inhibitors” (Orchid Chemicals & Pharmaceuticals Limited, priority 2007, dated 2013).
# pIC50: −log10 of the molar value.
# Key:
# Acetylated histone (H3) = test: Histone (H3) acetylation, sandwich ELISA in HCT116 lysate; format: cell-based; details: HCT116, 4 hours
# Procedure: (§1) Acetylated histone (H3), acetylated Tubulin and p21 levels were detected in cell lysate by sandwich ELISA method (Cell Signaling Technology, USA, Cat No: 7232, 7204 & 7167 respectively) by following manufacturer's instructions. Briefly, colon cancer cells (HCT116. 10,000/well) were incubated with test compound (1 and 10 μM) or medium (control) for 4 hours at 37° C. in CO2 incubator. The incubation lasted 18 hours for p21 induction. After incubation, cell lysates were prepared in cell lysis buffer by sonication on ice. The lysates were collected after centrifugation and subjected to ELISA test procedure. 100 μL of each diluted cell lysate in dilution buffer (1:1) was added to appropriate capture antibody coated microwells and incubated overnight at 4° C. After washing, 100 μL of detection antibody was added for 1 hour at 37° C. After second washing, 100 μL of HRP-linked secondary antibody was added for 30 min at 37° C. Finally, after appropriate washing, 100 μL of TMB substrate was added for 10 min at 37° C. followed by 100 μL of stop solution. The absorbance of individual wells was read using a spectrophotometer at 450 nm (A450).
# p21 = p21 induction, sandwich ELISA in HCT116 lysate; format: cell-based; details: HCT116, 18 hours
# Procedure: as §1
# acetylated Tubulin = test: Tubulin acetylation, sandwich ELISA in HCT116 lysate; format: cell-based; details: HCT116, 4 hours
# Procedure: as §1
# HCT 116 (colon) cells = test: Anti-cancer screen (MTT), HCT 116; format: cell-based; details: Homo sapiens, HCT-116, HCT116, 48 hours, MTT
# Method in brief: (§2)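 Cells in DMEM with 10% FBS were seeded for 24 h, then exposed for 48 h to compounds at 0.01, 0.1, 1, 10 and 100 μM final, in triplicate. Viability was read by MTT (3 h, A570 after DMSO solubilisation), referenced to a pre-dosing T0 plate, with SAHA as standard.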
# [1] = tested on: NCIH460, HCT116 and U251 cells; test: Anti-cancer screen, mean GI50 over cell lines; format: cell-based; details: mean over cell lines; read-out: Cell growth inhibition Mean GI50
# Method in brief: as §2
# recombinant HDAC1 enzyme = recombinant HDAC1 enzyme (Homo sapiens (Human), UniProt Q13547); test: HDAC1 inhibitory activity (isoform selectivity); format: biochemical; details: read-out: HDAC1 inhibition (IC50)
# Procedure: The assay was carried out, as previously described using recombinant HDAC1 enzyme (BIOMOL, USA) and following manufacturer's instructions.
# HCT116 (colon) xenograft = format: in vivo; details: oral gavage once every day for 21 days, vs vehicle treated control
# Procedure: Experiments were carried out using 6-8 week old female athymic SCID (Severe Combined Immune Deficient) mice. The mice were housed in Individually Ventilated Cages (IVC) at constant temperature (22±3° C.) and humidity (50±20%). They had free access to food and water. Tumors were obtained from ATCC, USA and maintained in vivo by subcutaneous (s.c.) passage of tumor fragments (appx 30 mg) in healthy mice according to standard reported procedures. All the animal protocols were approved by the Institutional Animal Ethics Committee, ORLL, Chennai. Each experimental group included 6-8 mice bearing s.c. tumors. Tumors were implanted into the axillary region by puncturing using a Trocar, and tumor growth was monitored by measurement of tumor diameters with a Vernier caliper. Tumor Volume (TV) was calculated according to the following formula: TV(mm^3)=L×W^2×0.5, […]
# Test compound was administered by oral gavage in a volume of 5-10 ml/kg. […] Tumor size was measured twice every week and body weight was recorded daily prior to dosing.
# Test compound (T) efficacy was assessed by calculating several parameters based on tumor volume (TV) with respect to untreated control (C). Parameters routinely assessed were T/C % [TVtest/TVcontrol×100] and Tumor Volume Inhibition (TVI=1−T/C %). […]
# Toxic effects of drug treatment were assessed by Body Weight Loss %. […]
# recombinant HDAC1 enzyme, sequence (Q13547 whole entry, canonical isoform): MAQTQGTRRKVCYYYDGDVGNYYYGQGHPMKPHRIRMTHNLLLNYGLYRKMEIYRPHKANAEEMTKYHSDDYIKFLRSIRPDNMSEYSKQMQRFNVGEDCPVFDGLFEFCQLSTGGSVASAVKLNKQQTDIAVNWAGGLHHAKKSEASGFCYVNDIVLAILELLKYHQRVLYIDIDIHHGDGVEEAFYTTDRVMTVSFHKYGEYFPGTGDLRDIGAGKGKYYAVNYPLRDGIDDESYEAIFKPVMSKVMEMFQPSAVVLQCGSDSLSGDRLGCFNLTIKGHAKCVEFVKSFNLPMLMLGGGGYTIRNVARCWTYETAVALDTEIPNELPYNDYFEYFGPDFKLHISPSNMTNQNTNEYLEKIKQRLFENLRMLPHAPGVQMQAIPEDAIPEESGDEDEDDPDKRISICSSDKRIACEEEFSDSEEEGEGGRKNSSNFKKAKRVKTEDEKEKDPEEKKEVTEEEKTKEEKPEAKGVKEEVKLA
compound,measurement,setting,value
"COc1ccc(/C=C(/C(=O)NCc2ccc(C(=O)Nc3ccccc3N)cc2)c2ccc(F)cc2)cc1OC [Compound 19, N-(2-Aminophenyl)-4-((3-(3,4-dimethoxyphenyl)-2-(4-fluorophenyl)acrylamido)methyl)benzamide]",H3 acetylation (Fold increase),Acetylated histone (H3); 1 μM,4 Fold increase
same,H3 acetylation (Fold increase),Acetylated histone (H3); 10 μM,16 Fold increase
same,P21 induction (Fold increase),p21; 1 μM,1.6 Fold increase
same,P21 induction (Fold increase),p21; 10 μM,2.4 Fold increase
same,Tubulin acetylation (Fold increase),acetylated Tubulin; 1 μM,1.9 Fold increase
same,Tubulin acetylation (Fold increase),acetylated Tubulin; 10 μM,4.4 Fold increase
same,GI50,HCT 116 (colon) cells; read-out: Cell growth inhibition HCT116 (Colon) GI50,300 nM
same,CC50,HCT 116 (colon) cells; read-out: Cell growth inhibition HCT116 (Colon) LC50,58000 nM
same,IC (TGI),HCT 116 (colon) cells; read-out: Cell growth inhibition HCT116 (Colon) TGI,5000 nM
same,GI50,[1],1000 nM
same,pIC50,recombinant HDAC1 enzyme,7.38
same,maximum Tumor Volume Inhibition (TVI),HCT116 (colon) xenograft,42%
